Results: US9688662B2, “N-(2,3-dihydro-1H-pyrrolo[2,3-b]pyridin-5-yl)-4-quinazolinamine and N-(2,3-dihydro-1H-indol-5-yl)-4-quinazolinamine derivatives as perk inhibitors” (Janssen Pharmaceutica NV, priority 2013, dated 2017)

What was measured:
PERK [1] = target: T1, PERK (Homo sapiens, UniProt Q9NZJ5); test: Cell-based PERK inhibition assay (TR-FRET, phosphorylation of GFP-eIF2 alpha in HEK293 cells, tunicamycin)
T1 sequence (Q9NZJ5 30-1116): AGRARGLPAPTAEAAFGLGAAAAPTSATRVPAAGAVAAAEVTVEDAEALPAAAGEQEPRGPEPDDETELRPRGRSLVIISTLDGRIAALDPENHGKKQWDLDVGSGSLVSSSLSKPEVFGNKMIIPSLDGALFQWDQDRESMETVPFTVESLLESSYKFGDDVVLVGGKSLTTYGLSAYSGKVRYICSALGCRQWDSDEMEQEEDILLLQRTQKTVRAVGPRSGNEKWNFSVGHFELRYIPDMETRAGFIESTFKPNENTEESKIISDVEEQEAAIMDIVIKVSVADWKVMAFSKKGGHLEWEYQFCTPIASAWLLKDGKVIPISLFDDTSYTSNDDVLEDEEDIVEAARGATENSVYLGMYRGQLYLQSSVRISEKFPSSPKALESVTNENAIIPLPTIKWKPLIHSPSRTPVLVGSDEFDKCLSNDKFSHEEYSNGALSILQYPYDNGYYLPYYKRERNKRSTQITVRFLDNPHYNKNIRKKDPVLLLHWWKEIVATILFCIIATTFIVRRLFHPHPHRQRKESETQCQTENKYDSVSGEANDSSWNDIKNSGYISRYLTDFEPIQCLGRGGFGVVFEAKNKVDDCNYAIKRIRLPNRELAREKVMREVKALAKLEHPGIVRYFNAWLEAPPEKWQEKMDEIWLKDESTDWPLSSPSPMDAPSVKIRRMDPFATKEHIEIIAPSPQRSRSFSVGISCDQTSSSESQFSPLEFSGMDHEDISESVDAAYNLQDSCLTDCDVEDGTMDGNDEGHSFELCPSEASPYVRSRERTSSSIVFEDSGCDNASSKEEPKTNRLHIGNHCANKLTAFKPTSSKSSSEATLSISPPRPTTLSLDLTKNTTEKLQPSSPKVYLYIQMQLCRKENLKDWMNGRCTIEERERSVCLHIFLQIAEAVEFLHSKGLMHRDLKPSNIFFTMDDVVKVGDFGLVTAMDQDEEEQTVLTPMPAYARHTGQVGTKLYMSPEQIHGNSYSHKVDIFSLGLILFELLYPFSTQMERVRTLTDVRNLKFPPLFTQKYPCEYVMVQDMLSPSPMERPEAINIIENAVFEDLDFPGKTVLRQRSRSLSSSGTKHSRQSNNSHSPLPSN
Protocol: A cell-based TR-FRET assay to measure inhibition of phosphorylation of GFP-eIF2 alpha expressed in HEK293 cells by compounds was set up as follows:
LanthaScreen® eIF2α GripTite cells (Invitrogen M4387) were plated and incubated for 16-20 h at 37° C. and 5% CO2, incubated with test compounds for 60 min, and then stimulated with tunicamycin (2 microg/ml) for 120 min. Culture medium was aspirated from the wells and, the cells were lysed in LanthaScreen® Cellular Assay Lysis Buffer (Invitrogen; PV5598), supplemented with protease inhibitor cocktail (Sigma P8340, 1/1000 dilution) and phosphatase inhibitor cocktail (Sigma P0044, 1/1000 dilution), including 2 nM terbium-labeled eIF2a pSer52 antibody (Invitrogen; PV4816).

PERK [2] = target: T1, PERK; test: In-vitro PERK enzyme inhibition assay (LanthaScreen, KIN_PERK); type: biochemical; set-up: GST (N); purchased Invitrogen PV5106; conditions: recombinant GST-PERK, GFP-eIF2 alpha substrate, 5 μM ATP, 60 minutes; for IC50: read-out: KIN_PERK pIC50 (converted)
Protocol: Pharmacology i) In-Vitro PERK Enzyme Inhibition Assay (KIN_PERK pIC50)
The compounds of the invention were tested for inhibitory activity against PERK in an enzyme inhibition assay.
A biochemical PERK kinase assay using LanthaScreen® technology from Invitrogen using recombinant GST-PERK (Invitrogen PV5106), GFP-eIF2 alpha (full length) as substrate (Invitrogen PV4809) and the Terbium-labeled antibody (Tb-anti-peIF2alpha (pSer52); Invitrogen PV4816) as detection reagent, was performed essentially as described by the manufacturer, using following specific parameters: […]

[3] = HEK293 (LanthaScreen eIF2α GripTite) cells, compounds 60 min, tunicamycin 2 microg/ml 120 min, read-out: P-eIF2alpha_Lantha_cell pIC50 (converted)
[4] = HEK293 (LanthaScreen eIF2α GripTite) cells, compounds 60 min, tunicamycin 2 microg/ml 120 min

| SMILES | IC50 (PERK [2]) [nM] | IC50 (PERK [1]; [3]) [nM] | further results |
| --- | --- | --- | --- |
| COc1cc2ncnc(Nc3ccc4c(c3)CCN4C(=O)Cc3c(C)[nH]c4ccc(F)cc34)c2cc1OC [Compound 2] | 0.631 |  | IC50 (PERK [1]): 25.1 nM |
| COc1cc2ncnc(Nc3ccc4c(c3F)CCN4C(=O)Cc3cc(F)ccc3F)c2cc1OC [Compound 3] | 0.398 | 50.1 | melting point: 210 °C |
| COc1cc2ncnc(Nc3ccc4c(c3)CCN4C(=O)Cc3c(C)[nH]c4c(F)cccc34)c2cc1OC [Compound 4] |  |  | P-eIF2alpha_Lantha_cell pIC50 (PERK [1]; [4]): 7.4; KIN_PERK pIC50 (PERK [2]): 8.8 |
| COc1cc2ncnc(Nc3ccc4c(c3)CCN4C(=O)Cc3c(C)n(C)c4ccccc34)c2cc1OC [Compound 5] | 1.26 | 63.1 | melting point: 168 °C |
| COc1ccc2[nH]c(C)c(CC(=O)N3CCc4cc(Nc5ncnc6cc(OC)c(OC)cc56)ccc43)c2c1 [Compound 6] | 1.58 | 79.4 |  |
| COc1cc2ncnc(Nc3ccc4c(c3)CCN4C(=O)Cn3c(C)cc4ccc(F)cc43)c2cc1OC [Compound 7] |  |  | P-eIF2alpha_Lantha_cell pIC50 (PERK [1]; [4]): 7.1; KIN_PERK pIC50 (PERK [2]): 8.5 |
| COc1cc2ncnc(Nc3ccc4c(c3)CCN4C(=O)Cc3c(C)[nH]c4ccccc34)c2cc1OCCCN1CCOCC1 [Compound 8] |  | 158 | melting point: 216 °C |
| COc1cc2ncnc(Nc3ccc4c(c3)CCN4C(=O)Cn3nc(C)c4ccccc43)c2cc1OC [Compound 9] | 15.8 | 251 |  |
| Cc1[nH]c2ccccc2c1CC(=O)N1CCc2cc(Nc3ncnc4cc5c(cc34)OCO5)ccc21 [Compound 10] | 3.98 | 158 |  |
| COc1cc2ncnc(Nc3ccc4c(c3)CCN4C(=O)Cc3c(Br)cnn3C)c2cc1OC [Compound 11, 2-(4-bromo-2-methyl-pyrazol-3-yl)-1-[5-[(6,7-dimethoxyquinazolin-4-yl)amino]indolin-1-yl]ethanone] | 7.94 | 251 | melting point: 170 °C |
| COc1cc2ncnc(Nc3ccc4c(c3)CCN4C(=O)Cc3cn(C)c4ccccc34)c2cc1OC [Compound 12] | 5.01 | 200 |  |
| COc1cc2ncnc(Nc3ccc4c(c3)CCN4C(=O)Cn3ccc4ccc(F)cc43)c2cc1OC [Compound 13] | 3.98 | 200 |  |
| COCCOc1cc2ncnc(Nc3ccc4c(c3)CCN4C(=O)Cc3c(C)[nH]c4ccccc34)c2cc1OCCOC [Compound 14] |  | 398 | melting point: 186 °C |
| COc1cc2ncnc(Nc3ccc4c(c3)C(F)(F)CN4C(=O)Cc3cc(F)ccc3F)c2cc1OC [Compound 18] | 31.6 | 794 |  |
| COc1cc2ncnc(Nc3ccc4c(c3)CCN4C(=O)Cc3c(C)nc4ccccn34)c2cc1OC [Compound 19] | 12.6 | 1260 |  |
| COc1cc2ncnc(Nc3ccc4c(c3)CCN4C(=O)Cc3ccccc3)c2cc1OC [Compound 21] | 25.1 | 1260 |  |
| COc1cc2ncnc(Nc3ccc4c(c3)CCN4C(=O)Cc3ccsc3)c2cc1OC [Compound 22] | 63.1 | 2000 |  |
| COc1cc2ncnc(Nc3ccc4c(c3)CCN4C(=O)Cc3n[nH]c4ccc(F)cc34)c2cc1OC [Compound 23] | 31.6 | 2000 |  |
| COc1cc2ncnc(Nc3ccc4c(c3)CCN4C(=O)Cn3ncc4ccccc43)c2cc1OC [Compound 24] | 79.4 | 3160 |  |
| COc1cc2ncnc(Nc3ccc4c(c3)CCN4C(=O)COc3ccccc3C(C)=O)c2cc1OC [Compound 25] | 79.4 | 3160 |  |
| COc1cc2ncnc(Nc3ccc4c(c3)CCN4C(=O)Cc3n[nH]c4ccccc34)c2cc1OC [Compound 26] | 63.1 | 3160 |  |

| SMILES | IC50 (PERK [2]) [nM] | IC50 (PERK [1]; [3]) [nM] | further results |
| --- | --- | --- | --- |
| COc1cc2ncnc(Nc3ccc4c(c3)CCN4C(=O)Cc3c[nH]c4ncccc34)c2cc1OC [Compound 27] | 63.1 | 3980 |  |
| COc1cc2ncnc(Nc3ccc4c(c3)CCN4C(=O)Cn3c(=O)n(C)c4ccccc43)c2cc1OC [Compound 29] | 50.1 | > 30200 |  |
| COc1cc2ncnc(Nc3ccc4c(c3)CCN4C(=O)Cn3cnc4ccccc43)c2cc1OC [Compound 31] | 63.1 | > 30200 |  |
| COc1cc2ncnc(Nc3ccc4c(c3)CCN4C(=O)Cc3cc4ccccc4[nH]3)c2cc1OC [Compound 32] | 398 | > 30200 |  |
| COc1cc2ncnc(Nc3ccc4c(c3)CCN4C(=O)Cc3c(-c4ccccc4)[nH]c4ccccc34)c2cc1OC [Compound 33] | 6310 |  |  |
| COc1cc2ncnc(Nc3ccc4c(c3)CCN4C(=O)CN3Cc4ccccc4C3=O)c2cc1OC [Compound 34] | 1580 |  |  |
| O=C(Cc1cc(F)ccc1F)N1CCc2cc(Nc3ncnc4cc5c(cc34)OCO5)ccc21 [Compound 35] | > 10000 |  |  |
| COc1cc2ncnc(Nc3ccc4c(c3)CCN4C(=O)CN3C(=O)c4ccccc4C3=O)c2cc1OC [Compound 36] | 3160 |  | melting point: 190 °C |
| COc1cc2ncnc(Nc3ccc4c(c3)CCN4C(=O)Cc3cn(C(C)C)c4ccccc34)c2cc1OC [Compound 37] | 1580 |  |  |
| COc1cc2ncnc(Nc3cnc4c(c3)CCN4C(=O)Cc3cc(F)cc(C(F)(F)F)c3)c2cc1OC [Compound 38] | 3160 |  |  |
| COc1cc2ncnc(Nc3ccc4c(c3)CCN4C(=O)Cc3cccc(C)n3)c2cc1OC [Compound 41] |  | 794 | melting point: 248 °C |
| COc1cc2ncnc(Nc3ccc4c(c3)CCN4C(=O)Cc3cc(F)cc(C(F)(F)F)c3)c2cc1OC [Compound 43] | 2 | 1580 |  |
| COc1ccc2ncnc(Nc3ccc4c(c3)CCN4C(=O)Cc3cc(F)cc(C(F)(F)F)c3)c2c1 [Compound 44] | ~21.4 | > 30200 |  |
| COc1ccc2c(Nc3ccc4c(c3)CCN4C(=O)Cc3cc(F)cc(C(F)(F)F)c3)ncnc2c1 [Compound 45] | 39.8 | > 30200 |  |
| COc1cc2ncnc(Nc3ccc4c(c3)CCN4C(=O)Cc3c(-c4cccs4)cnn3C)c2cc1OC [Compound 46, 1-[5-[(6,7-dimethoxyquinazolin-4-yl)amino]indolin-1-yl]-2-[2-methyl-4-(2-thienyl)pyrazol-3-yl]ethanone] | 398 | ~11500 |  |
| COc1cc2ncnc(Nc3ccc4c(c3)CCN4C(=O)Cc3ccnn3C)c2cc1OC [Compound 47, 1-[5-[(6,7-dimethoxyquinazolin-4-yl)amino]indolin-1-yl]-2-(2-methylpyrazol-3-yl)ethanone] | 63.1 | 6310 |  |
| COc1cc2ncnc(Nc3ccc4c(c3)CCN4C(=O)Cc3c(-c4ccccc4)cnn3C)c2cc1OC [Compound 48] | 251 | 1260 |  |
| COc1cc2ncnc(Nc3ccc4c(c3)CCN4C(=O)Cc3c(-c4ccoc4)cnn3C)c2cc1OC [Compound 49] | 50.1 | 3160 |  |
| COc1cc2ncnc(Nc3ccc4c(c3)CCN4C(=O)Cc3c(-c4cnoc4)cnn3C)c2cc1OC [Compound 50] | 79.4 | 3160 |  |
| COc1cc2ncnc(Nc3ccc4c(c3)CCN4C(=O)Cc3c(-c4ccsc4)cnn3C)c2cc1OC [Compound 51] | 251 | 31600 |  |
| COc1cc2ncnc(Nc3ccc4c(c3)CCN4C(=O)Cc3c(-c4cnn(C)c4)cnn3C)c2cc1OC [Compound 52] | 631 | > 30200 |  |
